The source of these data is BindingDB's records for patent US20240425513 (Carmot Therapeutics, 2024).

SMILES strings stand for the structures. pIC50: −log10 of the molar value.

This test addresses T1, Ubiquitin carboxyl-terminal hydrolase 28 (Homo sapiens, UniProt Q96RU2).
T1 sequence (Q96RU2 whole entry): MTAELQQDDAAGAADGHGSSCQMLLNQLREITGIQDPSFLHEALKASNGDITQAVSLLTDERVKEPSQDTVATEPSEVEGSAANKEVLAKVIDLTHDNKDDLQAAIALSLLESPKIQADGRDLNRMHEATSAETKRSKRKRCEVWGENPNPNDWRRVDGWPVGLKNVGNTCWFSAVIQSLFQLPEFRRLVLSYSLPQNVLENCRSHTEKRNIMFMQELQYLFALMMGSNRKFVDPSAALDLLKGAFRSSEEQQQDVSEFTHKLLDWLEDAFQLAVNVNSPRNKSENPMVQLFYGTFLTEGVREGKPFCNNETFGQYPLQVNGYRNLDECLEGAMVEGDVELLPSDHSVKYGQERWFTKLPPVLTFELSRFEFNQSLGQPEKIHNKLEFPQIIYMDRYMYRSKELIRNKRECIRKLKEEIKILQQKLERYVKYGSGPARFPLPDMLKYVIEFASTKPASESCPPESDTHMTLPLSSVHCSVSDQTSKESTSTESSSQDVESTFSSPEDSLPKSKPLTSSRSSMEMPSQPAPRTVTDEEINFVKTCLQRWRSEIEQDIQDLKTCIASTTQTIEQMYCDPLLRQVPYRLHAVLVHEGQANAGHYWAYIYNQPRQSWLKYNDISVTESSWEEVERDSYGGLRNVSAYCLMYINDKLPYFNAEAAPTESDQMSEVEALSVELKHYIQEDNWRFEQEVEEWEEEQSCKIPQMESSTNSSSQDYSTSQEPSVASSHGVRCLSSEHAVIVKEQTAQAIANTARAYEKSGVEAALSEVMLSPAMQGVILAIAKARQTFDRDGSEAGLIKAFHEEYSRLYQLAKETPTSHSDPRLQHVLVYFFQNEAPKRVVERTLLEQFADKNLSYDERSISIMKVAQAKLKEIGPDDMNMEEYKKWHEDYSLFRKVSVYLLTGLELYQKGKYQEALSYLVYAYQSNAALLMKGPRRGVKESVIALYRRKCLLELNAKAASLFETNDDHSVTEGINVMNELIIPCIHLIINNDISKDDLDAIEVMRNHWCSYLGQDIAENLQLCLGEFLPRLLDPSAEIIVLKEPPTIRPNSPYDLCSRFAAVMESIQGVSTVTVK
Briefly: Ubiquitin-Rhodamine 110 Assay. The protocol: Enzyme (His6 USP28, BostonBiochem, #E-570) concentration and incubation times were optimized for the maximal signal to background while maintaining the initial velocity conditions at a fixed substrate concentration. […] 2 μl of 4× enzyme was added to assay plates (pre stamped with compound) and incubated for 2 h at room temperature. […] of 4× substrate was subsequently added to the assay plates and incubated for 2 h at room temperature.

The term pIC50 denotes −log10 of the IC50, conventionally taken in molar units. In the case of `CC(Oc1ccc(-c2nc(Cc3cccc(Cl)c3)no2)cc1)C(=O)N[C@@H]1C[C@@H](C)N(C#N)C1` (stereo partly specified) [US20240425513, Example 11], the pIC50 was under 6.00.
